Data as given in patent publication US11965039B2, “Compstatin analogues and their medical uses” (priority 2018, dated 2024).
Starred links: 1 amine or outer side, 2 acyl side, 3 side chain; linkers in the order of their positions; H or OH if unused. Positions of bridges follow the written chain, without caps; N, C: chain ends. Non-standard residues stand in square brackets, D forms with d. Residues, ends and D or L forms follow the SMILES beside them. Groups on a side chain read outwards from the residue. *: point of attachment. Trp(1-Me) = Cn1cc(C[C@H](N)C(=O)O)c2ccccc21; C18 diacid = O=C(O)CCCCCCCCCCCCCCCCC(=O)*; γGlu = O=C(O)[C@H](CCC(=O)[*:2])N[*:1]; 2Nal = N[C@@H](Cc1ccc2ccccc2c1)C(=O)O; Sar = CNCC(=O)O

Assays:
[1] = test system: classical complement pathway; assay: In vitro haemolysis assay (inhibition of classical complement pathway); format: cell-based, human; details: human serum, sensitized sheep red blood cells; Table 3, given as upper bounds; read-out: IC50, inhibition of hemolysis
Method in brief: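 Compound dilutions preincubated 15 min at room temperature with diluted human serum (titrated per batch for 70-90% maximal haemolysis), then antibody-sensitized sheep RBC (10^7/well) added for 30 min at 37 °C in Tris/casein buffer, pH 7.4. Stopped with EDTA; haemolysis read at 405 nm; IC50 by 4PL fit.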

[2] = Solubility test at 10 mg/mL (visual inspection and light scattering); format: physicochemical; details: for Solubility, Condition 1: Acetate pH 4; for Solubility, Condition 2: Acetate pH 5; for Solubility, Condition 3: Phosphate pH 6; for Solubility, Condition 4: Phosphate pH 7; for Solubility, Condition 5: Phosphate pH 7.5

SMILES	IC50 [1]	Solubility, Condition 1 [2]	Solubility, Condition 2 [2]	Solubility, Condition 3 [2]	Solubility, Condition 4 [2]	Solubility, Condition 5 [2]
CC[C@H](C)[C@@H]1NC(=O)[C@@H](NC(=O)[C@H](Cc2ccc(O)cc2)NC(=O)[C@H](C)NC(=O)[C@H](CO)NC(=O)CNC(=O)[C@H](CCC(=O)O)NC(C)=O)CSSC[C@@H](C(=O)N(C)CC(=O)N[C@@H](CCC(=O)O)C(=O)NCC(=O)N[C@@H](CCC(=O)O)C(=O)N[C@@H](CCCCNC(=O)CC[C@H](NC(=O)CNC(=O)CC[C@H](NC(=O)CCCCCCCCCCCCCCCCC(=O)O)C(=O)O)C(=O)O)C(N)=O)NC(=O)[C@H](CCCNC(=N)N)NC(=O)[C@H](Cc2c[nH]cn2)NC(=O)[C@H](CCC(=O)O)NC(=O)CNC(=O)[C@H](Cc2c[nH]c3ccccc23)NC(=O)[C@H](CC(=O)O)NC(=O)[C@H](CCC(N)=O)NC(=O)[C@H](Cc2cn(C)c3ccccc23)NC1=O [Compound 109] (Ac-EGSAYCI[Trp(1-Me)]QDWGEHRC[Sar]EGEK([γGlu-Gly-γGlu-C18 diacid])-NH2; disulfide 6-16)	< 250 nM	− (“−” denotes lack of solubility at the given condition, as UV absorbance at 340 nm exceeds 0.1 AU and/or it is visibly turbid or contains particles)	+ (“+” denotes solubility at the given condition, as determined by UV absorbance being less than 0.1 AU at 340 nm and the sample being clear when manually inspected)	+ (“+” denotes solubility at the given condition, as determined by UV absorbance being less than 0.1 AU at 340 nm and the sample being clear when manually inspected)	+ (“+” denotes solubility at the given condition, as determined by UV absorbance being less than 0.1 AU at 340 nm and the sample being clear when manually inspected)	+ (“+” denotes solubility at the given condition, as determined by UV absorbance being less than 0.1 AU at 340 nm and the sample being clear when manually inspected)
CC[C@H](C)[C@@H]1NC(=O)[C@@H](NC(=O)[C@H](Cc2ccc(O)cc2)NC(C)=O)CSSC[C@@H](C(=O)N[C@H](C(=O)NCC(=O)N[C@@H](C)C(=O)N[C@@H](CCC(=O)O)C(=O)N[C@@H](CO)C(N)=O)[C@@H](C)O)NC(=O)[C@H](CCCNC(=N)N)NC(=O)[C@H](Cc2c[nH]cn2)NC(=O)[C@H](CCC(=O)O)NC(=O)CNC(=O)[C@H](Cc2c[nH]c3ccccc23)NC(=O)[C@H](CC(=O)O)NC(=O)[C@H](CCC(N)=O)NC(=O)[C@H](Cc2c[nH]c3ccccc23)NC1=O [Compound 66] (Ac-YCIWQDWGEHRCTGAES-NH2; disulfide 2-12)	< 100 nM	− (“−” denotes lack of solubility at the given condition, as UV absorbance at 340 nm exceeds 0.1 AU and/or it is visibly turbid or contains particles)	− (“−” denotes lack of solubility at the given condition, as UV absorbance at 340 nm exceeds 0.1 AU and/or it is visibly turbid or contains particles)	+ (“+” denotes solubility at the given condition, as determined by UV absorbance being less than 0.1 AU at 340 nm and the sample being clear when manually inspected)	+ (“+” denotes solubility at the given condition, as determined by UV absorbance being less than 0.1 AU at 340 nm and the sample being clear when manually inspected)	+ (“+” denotes solubility at the given condition, as determined by UV absorbance being less than 0.1 AU at 340 nm and the sample being clear when manually inspected)
CC[C@H](C)[C@H](NC(=O)[C@H](C)NC(=O)[C@H](CO)NC(=O)CNC(=O)[C@H](CCC(=O)O)NC(C)=O)C(=O)N[C@H]1CSSC[C@@H](C(=O)N(C)CC(=O)N[C@@H](CCC(=O)O)C(N)=O)NC(=O)[C@H](CCCNC(=N)N)NC(=O)[C@H](Cc2c[nH]cn2)NC(=O)[C@H](CCC(=O)O)NC(=O)CNC(=O)[C@H](Cc2c[nH]c3ccccc23)NC(=O)[C@H](CC(=O)O)NC(=O)[C@H](CCC(N)=O)NC(=O)[C@H](Cc2ccc3ccccc3c2)NC(=O)[C@H]([C@@H](C)CC)NC1=O [Compound 50] (Ac-EGSAICI[2Nal]QDWGEHRC[Sar]E-NH2; disulfide 6-16)	< 100 nM	− (“−” denotes lack of solubility at the given condition, as UV absorbance at 340 nm exceeds 0.1 AU and/or it is visibly turbid or contains particles)	− (“−” denotes lack of solubility at the given condition, as UV absorbance at 340 nm exceeds 0.1 AU and/or it is visibly turbid or contains particles)	+ (“+” denotes solubility at the given condition, as determined by UV absorbance being less than 0.1 AU at 340 nm and the sample being clear when manually inspected)	+ (“+” denotes solubility at the given condition, as determined by UV absorbance being less than 0.1 AU at 340 nm and the sample being clear when manually inspected)	+ (“+” denotes solubility at the given condition, as determined by UV absorbance being less than 0.1 AU at 340 nm and the sample being clear when manually inspected)
CC[C@H](C)[C@@H]1NC(=O)[C@@H](NC(=O)[C@H](Cc2ccc(O)cc2)NC(=O)[C@H](CCC(=O)O)NC(=O)[C@H](CO)NC(=O)CNC(=O)[C@H](CCC(=O)O)NC(=O)CCCCCCCCCCCCCCCCC(=O)O)CSSC[C@@H](C(=O)N(C)CC(=O)N[C@@H](CCC(=O)O)C(N)=O)NC(=O)[C@H](CCCNC(=N)N)NC(=O)[C@H](Cc2c[nH]cn2)NC(=O)[C@H](CCC(=O)O)NC(=O)CNC(=O)[C@H](Cc2c[nH]c3ccccc23)NC(=O)[C@H](CC(=O)O)NC(=O)[C@H](CCC(N)=O)NC(=O)[C@H](Cc2cn(C)c3ccccc23)NC1=O [Compound 108] ({C18 diacid}-EGSEYCI[Trp(1-Me)]QDWGEHRC[Sar]E-NH2; disulfide 6-16)	< 500 nM	− (“−” denotes lack of solubility at the given condition, as UV absorbance at 340 nm exceeds 0.1 AU and/or it is visibly turbid or contains particles)	− (“−” denotes lack of solubility at the given condition, as UV absorbance at 340 nm exceeds 0.1 AU and/or it is visibly turbid or contains particles)	+ (“+” denotes solubility at the given condition, as determined by UV absorbance being less than 0.1 AU at 340 nm and the sample being clear when manually inspected)	+ (“+” denotes solubility at the given condition, as determined by UV absorbance being less than 0.1 AU at 340 nm and the sample being clear when manually inspected)	+ (“+” denotes solubility at the given condition, as determined by UV absorbance being less than 0.1 AU at 340 nm and the sample being clear when manually inspected)
